Source: PubChem BioAssay (NCI)
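1) Cells in 96-well plates. 2) Compound, 48 h, 5 concentrations. 3) Linear interpolation between surrounding doses. 4) Unreached endpoint = highest concentration. The concentration for 50% growth inhibition is given as GI50. The concentration for full growth arrest is given as TGI.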

Legend:
Assay in all cases: NCI-60 cell line screen, 48 h
K-562 leukemia = tested on: K-562 leukemia
NCI-H522 lung = tested on: NCI-H522 lung
BT-549 breast = tested on: BT-549 breast
SW-620 colon = tested on: SW-620 colon
HCC-2998 colon = tested on: HCC-2998 colon
TK-10 renal = tested on: TK-10 renal
ACHN renal = tested on: ACHN renal
SN12C renal = tested on: SN12C renal
OVCAR-3 ovarian = tested on: OVCAR-3 ovarian
786-0 renal = tested on: 786-0 renal
DU-145 prostate = tested on: DU-145 prostate
SF-539 CNS = tested on: SF-539 CNS
OVCAR-8 ovarian = tested on: OVCAR-8 ovarian
MDA-MB-231 breast = tested on: MDA-MB-231 breast
CCRF-CEM leukemia = tested on: CCRF-CEM leukemia
IGROV1 ovarian = tested on: IGROV1 ovarian
OVCAR-4 ovarian = tested on: OVCAR-4 ovarian
U251 CNS = tested on: U251 CNS
RPMI-8226 leukemia = tested on: RPMI-8226 leukemia
UO-31 renal = tested on: UO-31 renal
NCI-H23 lung = tested on: NCI-H23 lung
KM12 colon = tested on: KM12 colon
NCI/ADR-RES ovarian = tested on: NCI/ADR-RES ovarian
SNB-19 CNS = tested on: SNB-19 CNS
HT29 colon = tested on: HT29 colon
HOP-92 NSCLC = tested on: HOP-92 NSCLC
COLO 205 colon = tested on: COLO 205 colon
HCT-15 colon = tested on: HCT-15 colon
RXF 393 renal = tested on: RXF 393 renal
SK-MEL-2 melanoma = tested on: SK-MEL-2 melanoma
MCF7 breast = tested on: MCF7 breast
SNB-75 CNS = tested on: SNB-75 CNS
SF-268 CNS = tested on: SF-268 CNS
SK-OV-3 ovarian = tested on: SK-OV-3 ovarian
HCT-116 colon = tested on: HCT-116 colon
UACC-62 melanoma = tested on: UACC-62 melanoma
CAKI-1 renal = tested on: CAKI-1 renal
UACC-257 melanoma = tested on: UACC-257 melanoma
OVCAR-5 ovarian = tested on: OVCAR-5 ovarian
SK-MEL-28 melanoma = tested on: SK-MEL-28 melanoma
SK-MEL-5 melanoma = tested on: SK-MEL-5 melanoma
SF-295 CNS = tested on: SF-295 CNS
M14 melanoma = tested on: M14 melanoma
A498 renal = tested on: A498 renal
A549 NSCLC = tested on: A549 NSCLC
PC-3 prostate = tested on: PC-3 prostate
HS 578T breast = tested on: HS 578T breast
NCI-H226 lung = tested on: NCI-H226 lung
HOP-62 NSCLC = tested on: HOP-62 NSCLC
MDA-MB-435 = tested on: MDA-MB-435
EKVX NSCLC = tested on: EKVX NSCLC
NCI-H460 lung = tested on: NCI-H460 lung
T-47D breast = tested on: T-47D breast
MALME-3M melanoma = tested on: MALME-3M melanoma
LOX IMVI melanoma = tested on: LOX IMVI melanoma

CC1OC2CC(=O)OC2C2=C1C(=O)c1c(O)cccc1C2=O (centres undefined)
GI50 (K-562 leukemia): 0.0298 µM | TGI (K-562 leukemia): > 100 µM | GI50 (NCI-H522 lung): < 0.0168 µM | TGI (NCI-H522 lung): 0.0402 µM | GI50 (BT-549 breast): 0.177 µM | TGI (BT-549 breast): 0.368 µM | GI50 (SW-620 colon): 0.0411 µM | TGI (SW-620 colon): 0.154 µM | GI50 (HCC-2998 colon): 0.236 µM | TGI (HCC-2998 colon): 0.558 µM | GI50 (TK-10 renal): 0.0795 µM | TGI (TK-10 renal): 0.283 µM | GI50 (ACHN renal): 0.0299 µM | TGI (ACHN renal): 0.0992 µM | GI50 (SN12C renal): 0.116 µM | TGI (SN12C renal): 0.259 µM | GI50 (OVCAR-3 ovarian): 0.0297 µM | TGI (OVCAR-3 ovarian): 0.0851 µM | GI50 (786-0 renal): 0.149 µM | TGI (786-0 renal): 0.292 µM | GI50 (DU-145 prostate): 0.15 µM | TGI (DU-145 prostate): 0.284 µM | GI50 (SF-539 CNS): 0.12 µM | TGI (SF-539 CNS): 0.284 µM | GI50 (OVCAR-8 ovarian): 0.0501 µM | TGI (OVCAR-8 ovarian): 0.36 µM | GI50 (MDA-MB-231 breast): 0.0684 µM | TGI (MDA-MB-231 breast): 0.334 µM | GI50 (CCRF-CEM leukemia): 0.0269 µM | TGI (CCRF-CEM leukemia): 0.501 µM | GI50 (IGROV1 ovarian): 0.0508 µM | TGI (IGROV1 ovarian): 0.112 µM | GI50 (OVCAR-4 ovarian): 0.113 µM | TGI (OVCAR-4 ovarian): 0.253 µM | GI50 (U251 CNS): 0.167 µM | TGI (U251 CNS): 0.492 µM | GI50 (RPMI-8226 leukemia): 0.0587 µM | TGI (RPMI-8226 leukemia): 0.602 µM | GI50 (UO-31 renal): 0.0725 µM | TGI (UO-31 renal): 0.23 µM | GI50 (NCI-H23 lung): 0.142 µM | TGI (NCI-H23 lung): 0.426 µM | GI50 (KM12 colon): 0.176 µM | TGI (KM12 colon): 0.392 µM | GI50 (NCI/ADR-RES ovarian): 0.0892 µM | TGI (NCI/ADR-RES ovarian): 0.646 µM | GI50 (SNB-19 CNS): 1.08 µM | TGI (SNB-19 CNS): 2.48 µM | GI50 (HT29 colon): 0.0312 µM | TGI (HT29 colon): 0.113 µM | GI50 (HOP-92 NSCLC): 0.151 µM | TGI (HOP-92 NSCLC): 0.315 µM | GI50 (COLO 205 colon): 0.0177 µM | TGI (COLO 205 colon): 0.0405 µM | GI50 (HCT-15 colon): 0.0314 µM | TGI (HCT-15 colon): 0.15 µM | GI50 (RXF 393 renal): 0.0195 µM | TGI (RXF 393 renal): 0.0499 µM | GI50 (SK-MEL-2 melanoma): 0.0885 µM | TGI (SK-MEL-2 melanoma): 0.272 µM | GI50 (MCF7 breast): 0.0183 µM | TGI (MCF7 breast): 0.0581 µM | GI50 (SNB-75 CNS): 0.13 µM | TGI (SNB-75 CNS): 0.317 µM | GI50 (SF-268 CNS): 0.163 µM | TGI (SF-268 CNS): 0.436 µM | GI50 (SK-OV-3 ovarian): 1.34 µM | TGI (SK-OV-3 ovarian): 2.67 µM | GI50 (HCT-116 colon): 0.0286 µM | TGI (HCT-116 colon): 0.107 µM | GI50 (UACC-62 melanoma): 0.135 µM | TGI (UACC-62 melanoma): 0.287 µM | GI50 (CAKI-1 renal): 0.0423 µM | TGI (CAKI-1 renal): 0.148 µM | GI50 (UACC-257 melanoma): 0.0748 µM | TGI (UACC-257 melanoma): 0.217 µM | GI50 (OVCAR-5 ovarian): 0.204 µM | TGI (OVCAR-5 ovarian): 0.44 µM | GI50 (SK-MEL-28 melanoma): 0.0548 µM | TGI (SK-MEL-28 melanoma): 0.191 µM | GI50 (SK-MEL-5 melanoma): 0.124 µM | TGI (SK-MEL-5 melanoma): 0.251 µM | GI50 (SF-295 CNS): 0.956 µM | TGI (SF-295 CNS): 2.62 µM | GI50 (M14 melanoma): 0.0611 µM | TGI (M14 melanoma): 0.193 µM | GI50 (A498 renal): 0.348 µM | TGI (A498 renal): 1.38 µM | GI50 (A549 NSCLC): 0.831 µM | TGI (A549 NSCLC): 2.68 µM | GI50 (PC-3 prostate): 0.242 µM | TGI (PC-3 prostate): 0.965 µM | GI50 (HS 578T breast): 0.261 µM | GI50 (NCI-H226 lung): 0.454 µM | TGI (NCI-H226 lung): 0.929 µM | GI50 (HOP-62 NSCLC): 0.182 µM | TGI (HOP-62 NSCLC): 0.366 µM | GI50 (MDA-MB-435): 0.0493 µM | TGI (MDA-MB-435): 0.214 µM | GI50 (EKVX NSCLC): 0.407 µM | TGI (EKVX NSCLC): 1.59 µM | GI50 (NCI-H460 lung): 0.415 µM | TGI (NCI-H460 lung): 1.75 µM | GI50 (T-47D breast): 0.106 µM | TGI (T-47D breast): 0.351 µM | GI50 (MALME-3M melanoma): 0.0235 µM | TGI (MALME-3M melanoma): 0.0695 µM | GI50 (LOX IMVI melanoma): 0.0342 µM | TGI (LOX IMVI melanoma): 0.129 µM
